Bridge positions count the residues as written; N and C are the ends. Ends that are not written are not given here.
Assays:
[1] = test system: swine colonic microbiota metabolome; assay: LC-MS metabolomic profiling of swine colonic microbiota in PolyFermS model; format: cell-based; details: for impact on the metabolome of the swine colonic microbiota (LC-MS profiles, PCA): PolyFermS pellet extracts, 0.4 mM MccJ25, 4 mM reuterin, 0.6 mM rifampicin, MccJ25 effect decreased with time, rifampicin effect increased
Protocol: (§1) The in vitro fermentation model of the swine colon has been described elsewhere in detail ([Tanner et al., 2014]) and in our previous study ([Naimi et al., 2020]). […] Seeded with 30% (v/v) swine fecal beads, the inoculum reactor IR (useful volume of 250 mL) was fed fresh nutrient medium continuously (Figure 1A). Effluent from IR was used to continuously inoculate at 10% (v/v) the test reactors TR1 and TR2, which also received 90% (v/v) fresh medium (Figure 1B). The feed rate of the three reactors controlled using peristaltic pumps (model 120U, Watson-Marlow, Falmouth, Cornwall, United Kingdom) was set at 27 mL/h for a mean retention time in IR and TRs of 9 h. For the first 3 days, the IR was run in repeated-batch mode, the medium replaced every 12 h with fresh medium, in order to colonize fecal bead. Continuous feeding was then started, followed by 12 days of stabilization before connection to TR1 and TR2. Continuous culture was split into three periods: stabilization, treatment and wash. Conditions were kept constant in IR to assess the temporal stability of the system without any manipulation during the entire fermentation, while TR1 and TR2 were subjected to treatments for various periods. Between each period, culture was flushed from TR1 and TR2 as described previously ([Tanner et al., 2014]). TR1 and TR2 were subjected to a washing procedure with 10% chlorine solution to decontaminate and remove any historical effect of the previous periods. Briefly, TR1 and TR2 were disconnected from the IR, the entire medium was removed and reactors were filled with 10% freshly prepared chlorine solution. After stirring for 1 h, the reactors were rinsed twice by adding sterile distilled water and stirring for another hour. After complete removal of water and chlorine residues, reactors were filled with sterile fresh nutritive medium and reconnected to the IR. After each flush, they were stabilized for 3 days until a steady state was reached before starting the next treatment period.
Resulting networks were visualized using Cytoscape 3.7.1.

[2] = test system: porcine intestinal microbiota; assay: 16S rRNA gene amplicon sequencing of microbiota in PolyFermS model (alpha/beta diversity, taxonomy); format: cell-based, swine; details: for change in microbial composition (PCoA of Bray Curtis similarity matrix, PERMANOVA) compared to Salmonella alone: 24 h fermentation, two replicates F1 and F2, 0.4 mM MccJ25, 4 mM reuterin, p value 0.001 for significant differences; for change in microbial composition (PCoA of Bray Curtis similarity matrix, PERMANOVA) compared to Salmonella alone / change in alpha diversity (Shannon index and number of observed ASVs): 0.6 mM rifampicin; for change in alpha diversity (Shannon index and number of observed ASVs): rifampicin effect from the 8-h time point until end of fermentation, 0.4 mM MccJ25, 4 mM reuterin
Protocol: as §1
The microbial community at different time points along the fermentation was analyzed by Illumina next-generation 16S rRNA gene amplicon sequencing. Taxonomic analysis were assessed by sequencing the bacterial 16S rRNA gene in the V3-V4 region using the amplification primers 341F (5′-CCTACGGGNGGCWGCAG-3′) and 805R (5′-[…]-3′) adapted to incorporate the transposon-based Illumina Nextera adapters (Illumina, United States) and a sample barcode sequence allowing multiplexed sequencing ([García-López et al., 2020]). High-throughput sequencing was performed at the Institute for Integrative Systems Biology (Université Laval, Québec, Canada) on a MiSeq platform using 2 × 300 bp paired-end sequencing (Illumina, United States). The raw sequence data have been submitted to European Nucleotide Archive (ENA) database with accession number PRJEB52762.
Raw data were processed using the DADA2 R package (version 1.14.1) ([Callahan et al., 2016]) to obtain exact amplicon sequence variants (ASVs) using the metabaRpipe R package^1. Briefly, forward and reverse reads were truncated after 260 and 250 nucleotides, respectively. After truncation, reads with expected error rates higher than three and four for forward and reverse reads, respectively, were removed. After filtering, error rate learning, ASV inference and denoising, reads were merged with a minimum overlap of 15 nucleotides. Chimeric sequences were identified and removed. Taxonomy was assigned to ASVs using DADA2 against SILVA database (v138.1) ([Glöckner et al., 2017]). Phylogenetic relatedness of ASVs, alpha diversity (Observed and Shannon indexes) and beta diversity analyses (Bray Curtis similarity matrix) were performed using the phyloseq R package ([McMurdie and Holmes, 2013]) and the DivComAnalyses packages^2.
The rarefied ASV table was used to calculate richness and diversity indices.

Salmonella Newport = details: PolyFermS continuous culture simulating swine proximal colon; ref Naimi et al., 2020; cited from earlier work
Text: Microcin J25 (MccJ25) is one of the most studied Gram-negative bacteriocins. This 21-amino-acid posttranslationally modified peptide produced by E. coli is a potent inhibitor of Enterobacteriaceae including Salmonella ([Rintoul et al., 2001]). It is a typical lasso peptide ([Arnison et al., 2013]; [Wang and Zhang, 2018]) which is characterized by an 8-residue macrolactam ring that is closed by an isopeptide bond between the N-terminus and the side chain carboxylate of a glutamate at position 8. The ring is threaded by the resulting tail that is locked inside by two bulky amino acid side chains ... || Enumerating specific bacterial groups by PMA-qPCR provided first a global information on the composition of the swine gut microbial community. Rifampicin induced important changes in Bacteroides, Lactobacillaceae and total 16S rRNA gene contents at the end of the colonic fermentation while no major effects were observed when MccJ25 and reuterin were added separately. […] Taxonomically, rifampici ... || Since MccJ25 appears to be a potent inhibitor of Salmonella Newport in the PolyFermS continuous culture model of the porcine proximal colonic microbiome as shown previously ([Naimi et al., 2020]), it should be considered as a potential alternative to antibiotics in pork production. […] This is important since it has been shown that changes in gut microbiota composition are associated with various metabolic disorders and likely subject the ...

swine colonic microbiota = assay: PMA-qPCR counts of bacterial groups in PolyFermS swine colon fermentation model; format: cell-based; details: for impact on total bacterial counts: PolyFermS, with Salmonella Newport 10^7 cfu/mL, 0.4 mM MccJ25 or 4 mM reuterin, 24 h
Protocol: as §1
The inhibitory activity of MccJ25, reuterin and rifampicin against Salmonella Newport and the major bacterial species constituting the swine colonic microbiota were quantified using propidium-monoazide-coupled quantitative polymerase chain reaction (PMA-qPCR). Samples collected from the reactors were treated with propidium monoazide (PMA dye, Biotium, Inc., Hayward, CA, United States) for viable bacteria counts as described previously ([Fernandez et al., 2016]). […]
The quantitative PCR (qPCR) was performed in MicroAmp® Fast Optical 96-Well Reaction Plates with Barcode (Life Technologies Inc., Burlington, ON, Canada) on an ABI 7500 Real-Time PCR System (Applied Biosystems, Streetsville, ON, Canada). Each sample was analyzed in duplicate. […]

E. coli = details: reuterin 1.3 mM, without affecting other bacterial populations; ref Cleusix et al., 2008; cited from earlier work
Protocol: Enumerating specific bacterial groups by PMA-qPCR provided first a global information on the composition of the swine gut microbial community. Rifampicin induced important changes in Bacteroides, Lactobacillaceae and total 16S rRNA gene contents at the end of the colonic fermentation while no major effects were observed when MccJ25 and reuterin were added separately. […] Taxonomically, rifampici ...

E. coli infection = details: highly purified MccJ25; ref Yu et al., 2022; cited from earlier work
Text: (§2) The widespread use of antibiotics in livestock production has led to the emergence of antibiotic-multiresistant bacteria, which can infect humans via the food chain. The use of antibiotics as growth promoters has been banned outright in several industrialized countries, which has increased the urgency of the search for alternatives. Researchers began decades ago to propose bacteriocins as substitutes. In addition to their natural origin, being mostly indigenous to the gut microbiota, and their potent inhibitory activity, bacteriocins are most often endowed with a narrow spectrum of antibacteri ...

[3] = test system: clinically relevant veterinary multidrug-resistant strains; details: highly purified MccJ25; ref Yu et al., 2022; cited from earlier work
Text: as §2

weaned pigs = details: MccJ25 purity above 99%; ref Yu et al., 2017; cited from earlier work
Text: (§3) Microcin J25 (MccJ25) is one of the most studied Gram-negative bacteriocins. This 21-amino-acid posttranslationally modified peptide produced by E. coli is a potent inhibitor of Enterobacteriaceae including Salmonella ([Rintoul et al., 2001]). It is a typical lasso peptide ([Arnison et al., 2013]; [Wang and Zhang, 2018]) which is characterized by an 8-residue macrolactam ring that is closed by an isopeptide bond between the N-terminus and the side chain carboxylate of a glutamate at position 8. The ring is threaded by the resulting tail that is locked inside by two bulky amino acid side chains ...

[4] = cited from earlier work
Text: as §3

[5] = PolyFermS TR1/TR2, Salmonella Newport 10^7 cfu/mL + 0.6 mM rifampicin, after 12 h, followed by regrowth

| Compound | impact on the metabolome of the swine colonic microbiota (LC-MS profiles, PCA) [1] | change in microbial composition (PCoA of Bray Curtis similarity matrix, PERMANOVA) compared to Salmonella alone [2] | change in alpha diversity (Shannon index and number of observed ASVs) [2] | inhibitory activity against Salmonella Newport (Salmonella Newport) | impact on total bacterial counts (swine colonic microbiota) | effect on E. coli population (E. coli) | change in amino acid levels in microbiota metabolome ([1]; PolyFermS, 0.6 mM rifampicin + Salmonella Newport, extracted ion chromatograms) | relative abundance of Escherichia-Shigella (ASV002) ([2]; 0.6 mM rifampicin + Salmonella Newport, at 12 h, enriched from the 8-h time point) | taxonomic change at the phylum level ([2]; 0.6 mM rifampicin + Salmonella Newport, from the 6-h time point, both reactors F1 and F2) | reduction of Bacteroides counts (swine colonic microbiota; [5]) | reduction of total cell counts (swine colonic microbiota; [5]) | effect on inflammation (E. coli infection) | bactericidal activity in vitro [3] | metabolomics profile after 24 h treatment ([1]; PolyFermS, 0.4 mM MccJ25 + Salmonella Newport, 24 h) | effect of supplemented diet on weaned pigs (weaned pigs) | stability to denaturing conditions, high temperatures, extreme pHs and certain proteases [4] |
| --- | --- | --- | --- | --- | --- | --- | --- | --- | --- | --- | --- | --- | --- | --- | --- | --- |
| O=CCCO [reuterin, 3-hydroxypropanal] | no impact | No significant changes | did not induce a remarkable changes | did not inhibit Salmonella Newport | did not induce significant impact | significantly and selectively decrease E. coli |  |  |  |  |  |  |  |  |  |  |
| CO[C@H]1/C=C/O[C@@]2(C)Oc3c(C)c(O)c4c(O)c(c(/C=N/N5CCN(C)CC5)c(O)c4c3C2=O)NC(=O)/C(C)=C\C=C\[C@H](C)[C@H](O)[C@@H](C)[C@@H](O)[C@@H](C)[C@H](OC(C)=O)[C@@H]1C [rifampicin, Rifampicin] | significant effects | significant differences | significant decrease | inhibits Salmonella growth |  |  | increase in the levels of Leu/Ile, Phe, Tyr and Trp amino acids | more than 44% | increase of the relative abundance of Proteobacteria and Firmicutes phyla | approximately 1 log | approximately 1 log |  |  |  |  |  |
| Microcin J25 (GGAGHVPEYFVGIGTPISFYG; lactam N-8; also: lasso macrolactam, places not given here; UniProt Q9X2V7 38-58, looked up) [MccJ25, 21-amino-acid posttranslationally modified lasso peptide bacteriocin produced by E. coli; 8-residue macrolactam ring closed by isopeptide bond to Glu8] |  | significant differences | did not induce a remarkable changes | remained potent over 24 h | did not induce significant impact |  |  |  |  |  |  | decrease inflammation | efficient bactericidal activity | close to that before treatment | improve growth performance, and attenuate diarrhea and systematic inflammation | remarkable stability |

— PMC9383034, “Impact of microcin J25 on the porcine microbiome in a continuous culture model” (Frontiers in Microbiology, 2022)
